Experimental data: article PMC11665553, “12-Lipoxygenase inhibition delays onset of autoimmune diabetes in human gene replacement mice” (JCI Insight, 2024)
Where “and” joins values, the source holds several entries; their conditions need not be identical. Equal values may be shown once. Entries after “also recorded” stand apart in the source; their conditions may differ.

Assays:
[1] = test system: NOD.hALOX12 mice; assay: Diabetes incidence (prevention) in NOD.hALOX12 mice; format: in vivo, mouse; conditions: 30 mg/kg p.o. daily, 6–10 weeks of age
Protocol: Mice were followed for diabetes development (blood glucose ≥250 mg/dL on 2 consecutive days) until 25 weeks of age (Figure 3A).
Diabetes incidence was determined by observing 2 consecutive blood glucose values greater than 250 mg/dL.

[2] = test system: NOD.hALOX12 mice; assay: Oxidative stress immunostaining (4-HNE, GPx1) in NOD.hALOX12 mice; format: in vivo, mouse
Text: (§1) We, therefore, immunostained pancreatic sections for markers of cell death and proliferation in the islet.
(§2) For immunofluorescent staining, pancreatic sections were stained with the following antibodies: anti-insulin (Dako, IR002; 1:4), anti-glucagon (Santa Cruz Biotechnology, sc514592; 1:50), anti-B220 (BioLegend, 03201; 1:100), anti-CD3 (Abcam, ab16669; 1:200), anti-PCNA (Santa Cruz Biotechnology, sc-7907; 1:100), anti–4-HNE (Abcam, ab46545; 1:200), and anti-GPx1 (Santa Cruz Biotechnology, sc-22145; 1:100). Highly cross-adsorbed Alexa Fluor secondary antibodies (Thermo Fisher Scientific) were used at a dilution of 1:500. Tissue sections were stained with DAPI (Thermo Fisher Scientific) to label cell nuclei. The Nikon A1 confocal microscopy was used to capture images. CellProfiler v4.1 software (https://cellprofiler.org/) was used for image analysis.

[3] = test system: NOD.hALOX12 mice; assay: Flow cytometry of pancreatic lymph nodes and spleen of NOD.hALOX12 mice; format: in vivo, mouse; design: FoxP3 / CD4 / IFNg / IL-17a: unit not given here; conditions: for CD4 / FoxP3 / IFNg / IL-17a: flow cytometry, individual animals, listed as VLX
Protocol: Spleen and pLNs were harvested, homogenized, and passed through a 70 μm strainer to obtain a single-cell suspension. Cell pellets were resuspended in red blood cell (RBC) lysing solution to remove red blood cells. […] The following surface markers were used — CD4-FITC (BioLegend, 100510; 1:100), CD8–PerCP-Cy5.5 (BioLegend, 100734; 1:100), and CD19-AF700 (BioLegend, 152414; 1:100). Following incubation of surface antibodies, cells were washed with stain buffer and then permeabilized using fix/perm buffer (BD Biosciences, 554722) before intracellular staining. The following intracellular antibodies from BD Biosciences were used: FoxP3-AF647 (560401; 1:100), IFN-γ–PE (554412; 1:50), and IL-17a–APCCY7 (560821; 1:50). Cells were analyzed on the Attune NxT Flow Cytometer (Thermo Fisher Scientific). Data were analyzed by FlowJo software (BD Biosciences).

[4] = Pharmacokinetics after single p.o. dose in C57BL/6J mice (plasma LC-MS/MS)
[5] = test system: NOD.hALOX12 mice; assay: NanoString spatial proteomics of insulitic and insulin-positive areas in NOD.hALOX12 mice; format: in vivo, mouse; conditions: Insulitic Area; Fig 2F source data, individual values
[6] = Pharmacokinetics after single p.o. dose in NOD.ShiLt/J mice (plasma LC-MS/MS); format: in vivo, mouse; conditions: 30 mg/kg p.o., mean ± SD
Text: The NOD mouse model is a model of T1D that recapitulates many of the immune and β cell features of the disease ([20]). […] To address this question, we introgressed humanized hALOX12 mice onto the NOD background using a speed congenics approach. […] We next measured human 12-LOX protein levels in the NOD.hALOX12 mice.

[7] = test system: NOD.hALOX12 mice; assay: Insulitis scoring and pancreas immunostaining (CD3, B220, F4/80, MAC2) in NOD.hALOX12 mice; format: in vivo, mouse
[8] = test system: NOD.hALOX12 mice; assay: Islet cell death and proliferation staining (TUNEL, H2A.X, PCNA) in NOD.hALOX12 mice
Text: as §1
Pancreatic tissues were fixed using 4% paraformaldehyde. After fixation, the tissues were embedded in paraffin and sectioned with a thickness of 5 μm. Three sections per mouse were used for analysis, with each section being spaced 100 μm apart. Tissue sections were immunostained with anti-insulin (ProteinTech, 15848-1-AP; 1:200), anti-glucagon (Abcam, ab92517; 1:200), anti–12-LOX (Thermo Fisher Scientific, PA5-26020; 1:200), anti–12/15-LOX (Abcam, ab80221; 1:200), anti-CD3 (Abcam, ab16669; 1:200), anti-F4/80 (Sigma-Aldrich, D2S9R; 1:150), anti-MAC2 (Thermo Fisher Scientific, EbioM3/38; 1:200), and anti-H2A.X (Cell Signaling Technology, 9718s; 1:200) primary antibodies followed by conjugated anti-rabbit Ig (Vector Laboratories) secondary antibody. A DAB (3,3′-diaminobenzedine) Peroxidase Substrate Kit from Vector Laboratories was used for detection. After immunostaining, the tissue sections were counterstained with hematoxylin (Sigma-Aldrich). Images were acquired using a BZ-X810 fluorescence microscope (Keyence) and β/α cell mass was quantified by insulin^+ or glucagon^+ area and whole pancreas area.
as §2
A TUNEL assay was used to determine β cell death in pancreatic islets. The assay was performed according to the protocol provided by the manufacturer (Abcam) and HRP-DAB chemistry was used for detection. Two sections, spaced 100 μm apart, were used for each mouse. Images were captured using a BZ-X810 fluorescence microscope system (Keyence). The number of TUNEL^+ cells was assessed manually per islet.

[9] = test system: B6.hALOX12 mice; assay: Multiple low-dose STZ-induced diabetes in B6.hALOX12 mice (random-fed blood glucose, GTT, β cell mass); conditions: for Blood glucose (Fig 1H) / GTT blood glucose (Fig 1I): individual animals; for Random-fed blood glucose (Fig 1E) / GTT blood glucose (Fig 1F): hAlox12 mice, listed as ML355, 30 mg/kg; for Random-fed blood glucose (Fig 1E): 30 mg/kg i.p. + STZ
Protocol: Intraperitoneal GTTs (IPGTTs) were performed in mice after overnight fasting (16 hours). Mice were i.p. injected with glucose at a dose of 1 or 2 g/kg body weight and blood glucose levels were measured at specific time points: 0, 10, 20, 30, 60, 90, and 120 minutes after glucose injection using an AlphaTrak glucometer.
Random-fed glucose levels were measured by tail snip using a glucometer (AlphaTrak), and mice were followed for 20 days after STZ injections. IPGTT was performed on day 4 after STZ treatments after overnight fasting.

[10] = test system: human islets; design: method as in PMID 28609824; conditions: cited from earlier work
[11] = test system: 12-LOX products; assay: Serum lipidomics (LC-MS/MS) of 12-LOX and non-12-LOX products in NOD.hALOX12 mice; format: in vivo, mouse
Protocol: Lipidomics analysis (by LC-MS/MS) was performed for a series of 12-LOX products resulting from different fatty acid substrates (Figure 2A).

[12] = female NOD.hALOX12 mice, 4 weeks of treatment
[13] = sheet Fig 4E, individual mice, listed as VLX
[14] = female NOD.hALOX12 mice, 30 mg/kg p.o., 4 weeks
[15] = C57BL/6J, mouse, plasma, po, 30 mg/kg
[16] = sheet Fig 2G, pancreas immunostaining, individual animals, listed as VLX
[17] = sheet Fig 4D, individual mice, listed as VLX
[18] = B6.hALOX12 mice, 30 mg/kg p.o., STZ
[19] = female NOD.hALOX12 mice, 30 mg/kg p.o., 1 week
[20] = serum, individual animals, listed as VLX

## COc1cccc(CNc2ccc(S(=O)(=O)Nc3nc4ccccc4s3)cc2)c1O [VLX-1005]
[1]; female NOD.hALOX12 mice
  Mice protected from diabetes development at 25 weeks of age: 60%
[1]; male NOD.hALOX12 mice
  Mice protected from diabetes development at 25 weeks of age: 75%
[2]; [12]
  4-HNE immunostaining (oxidative stress marker) vs placebo: reduced immunostaining
  GPx1 levels in β cells: increase
[2]; [13]
  4-hne: 300.045 and 304.934 and 308.173 and 287.237 and 299.135
  GPx1: 416.4 and 443.77 and 439.26 and 458.35
[3]; [14]
  CD4+Foxp3+ regulatory T cells in pancreatic lymph nodes: increase
  Tregs in spleen: no changes
[3]; sheet SFig 2C
  CD4: 65.7 and 58.8 and 61.4 and 58 and 54.2
  FoxP3: 4.31 and 7.46 and 5.24 and 7.28 and 5.6
  IFNg: 0.037 and 0.092 and 0.047 and 0.058 and 0.044
  IL-17a: 2.96 and 5.74 and 6.17 and 6.96 and 7.02
[3]; sheet SFig 2D
  CD4: 46.2 and 45.1 and 46.1 and 45.5 and 43.7
  FoxP3: 8.7 and 7.15 and 4.07 and 12.1 and 9.49
  IFNg: 0.36 and 0.33 and 0.39 and 0.29 and 0.4
  IL-17a: 3.2
[4]; C57BL/6J mice, 30 mg/kg p.o., mean ± SD
  AUC%extrap_obs: 0.342 ± 0.133%
[4]; [15]
  AUC(0-inf): 15100 ng·h/mL
  AUC(0-t): 15000 ng·h/mL
  Cmax: 13300 ng/mL
  MRT inf: 2.57 ± 0.38 h
  half-life: 3.24 ± 0.07 h
[5]
  CD19: 0.1873 and -0.4029 and 0.4865 and 2.831 and -0.3159 and 0.2718 and 0.8536 and 0.6292 and 1.249 and 2.864
[6]; dose-normalized
  AUClast/D: 440 ± 54 ng·h/mL
[6]
  AUC%extrap_obs: 0.115 ± 0.099%
[6]; mouse, plasma, po
  AUC(0-inf): 13200 ng·h/mL
  AUC(0-t): 13200 ng·h/mL
  Cmax: 14300 ng/mL
  half-life: 2.53 ± 0.41 h
[6]; mouse, plasma, po, read-out: MRTinf_obs
  MRT inf: 3.81 ± 0.71 h
[7]; [14]
  T and B cell infiltration (pancreas pathology): reduced T and B cell infiltration
  T cells (CD3+), macrophages (F4/80+), activated macrophages (Mac2+) by immunohistochemistry: reductions
[7]; female NOD.hALOX12 mice, 30 mg/kg p.o., 4 weeks (6–10 weeks of age)
  Extent of insulitis (insulitis scoring) vs vehicle: significantly reduced
[7]; individual animals, listed as VLX
  Insulitis score (Fig 2E): 1.633 and 1.787 and 1.784 and 1.529 and 1.472
[7]; [16]
  CD3: 1.368e-5 and 2.024e-5 and 0.0002739 and 0 and 2.686e-5
  F4/80: 0.00043 and 0.0003528 and 0.0003661 and 0.0004659 and 0.0002593
  F4/80 (second Veh/VLX pair): 0.000451 and 0.000344 and 0.000488 and 0.0002845
[8]; [12]
  Islet cell death (TUNEL, H2A.X staining) vs vehicle: decreased islet cell death
  β cell proliferation (PCNA immunostaining) vs vehicle: decreased β cell proliferation
[8]; [17]
  H2Ax: 0.25 and 0.166 and 0 and 0.14
  PCNA: 1.4 and 1.2 and 0.9 and 1.83
[9]; [18]
  Glucose tolerance vs vehicle: significantly improved glucose tolerance
  Random-fed blood glucose levels vs vehicle: lower random-fed blood glucose levels
  β cell mass at end of study vs vehicle: greater β cell mass
[9]; B6.hALOX12 mice, 30 mg/kg p.o., day 4 after STZ, individual mice, 30 mg/kg
  GTT AUC (Fig 1J): 38575 and 27605 and 37915 and 32740 and 28655 and 39615
[9]; B6.hALOX12 mice, 30 mg/kg p.o., day 26 after STZ, individual mice, listed as VLX, 30 mg/kg
  β cell mass (Fig 1K): 0.4287 and 0.8456 and 0.5623 and 0.6492 and 1.024
[9]; B6.hALOX12 vs WT C57BL/6J mice, both 30 mg/kg i.p., after STZ
  Glucose tolerance (GTT): improved glucose tolerance
[9]; day 1
  Blood glucose (Fig 1H): 293 and 265 and 377 and 281 and 389 and 367
[9]; day 4
  Blood glucose (Fig 1H): 209 and 312 and 289 and 205 and 311 and 272
[9]; day 8
  Blood glucose (Fig 1H): 346 and 273 and 297 and 307 and 219 and 303
[9]; day 11
  Blood glucose (Fig 1H): 435 and 460 and 385 and 378 and 441 and 298
[9]; day 16
  Blood glucose (Fig 1H): 427 and 543 and 470 and 301 and 405 and 380
[9]; day 18
  Blood glucose (Fig 1H): 571 and 573 and 426 and 374 and 417 and 346
[9]; day 23
  Blood glucose (Fig 1H): 474 and 543 and 550 and 331 and 533 and 356
[9]; day 25
  Blood glucose (Fig 1H): 630 and 501 and 416 and 359 and 457 and 307
[9]; day 28
  Blood glucose (Fig 1H): 426 and 551 and 530 and 363 and 483 and 470
[9]; day -3
  Blood glucose (Fig 1H): 296 and 262 and 381 and 299 and 367 and 314
[9]; hALOX12 mice, 30 mg/kg i.p., day 4 after STZ, individual mice, 30 mg/kg
  GTT AUC (Fig 1G): 24945 and 29635 and 27915 and 36735
[9]; day 0, individual mice
  Random-fed blood glucose (Fig 1E): 184 and 194 and 153 and 159
[9]; day 5, individual mice
  Random-fed blood glucose (Fig 1E): 174 and 179 and 181 and 131
[9]; day 10, individual mice
  Random-fed blood glucose (Fig 1E): 195 and 201 and 210 and 180
[9]; day 15, individual mice
  Random-fed blood glucose (Fig 1E): 167 (2×) and 210 and 214
[9]; day 22, individual mice
  Random-fed blood glucose (Fig 1E): 193 and 223 and 208 and 188
[9]; day 27, individual mice
  Random-fed blood glucose (Fig 1E): 216 and 217 and 226 and 193
[9]; day -5, individual mice
  Random-fed blood glucose (Fig 1E): 194 and 201 and 167 and 185
[9]; 30 mg/kg i.p., day 4 after STZ, 0 min after glucose, individual mice
  GTT blood glucose (Fig 1F): 184 and 132 and 122 and 134
[9]; 30 mg/kg i.p., day 4 after STZ, 10 min after glucose, individual mice
  GTT blood glucose (Fig 1F): 401 and 364 and 354 and 369
[9]; 30 mg/kg i.p., day 4 after STZ, 20 min after glucose, individual mice
  GTT blood glucose (Fig 1F): 610 and 557 and 487 and 467
[9]; 30 mg/kg i.p., day 4 after STZ, 30 min after glucose, individual mice
  GTT blood glucose (Fig 1F): 512 and 597 and 398 and 458
[9]; 30 mg/kg i.p., day 4 after STZ, 60 min after glucose, individual mice
  GTT blood glucose (Fig 1F): 361 and 446 and 310 and 375
[9]; 30 mg/kg i.p., day 4 after STZ, 90 min after glucose, individual mice
  GTT blood glucose (Fig 1F): 221 and 387 and 284 and 306
[9]; 30 mg/kg i.p., day 4 after STZ, 120 min after glucose, individual mice
  GTT blood glucose (Fig 1F): 159 and 209 and 223 and 281
[9]; male B6.hALOX12 mice, 30 mg/kg i.p. daily peri-STZ
  Protection from STZ-induced diabetes: complete protection from STZ-induced diabetes
[9]; time 0
  GTT blood glucose (Fig 1I): 403 and 326 and 234 and 245 and 279 and 370
[9]; time 10
  GTT blood glucose (Fig 1I): 585 and 462 (2×) and 543 and 359 and 482
[9]; time 20
  GTT blood glucose (Fig 1I): 636 and 668 and 606 and 558 and 520 and 577
[9]; time 30
  GTT blood glucose (Fig 1I): 577 and 520 and 660 and 662 and 560 and 646
[9]; time 60
  GTT blood glucose (Fig 1I): 488 and 436 and 530 and 581 and 420 and 589
[9]; time 90
  GTT blood glucose (Fig 1I): 345 and 329 and 461 and 457 and 365 and 408
[9]; time 120
  GTT blood glucose (Fig 1I): 239 and 265 and 375 and 360 and 216 and 283
[10]
  Cytotoxicity in human islets: without evidence of cytotoxicity
[10]; proinflammatory cytokines
  Effect on function of cytokine-treated human islets in vitro: efficacy in reversing the insulin secretory defects; also recorded: protect human islets in vitro against dysfunction caused by proinflammatory cytokines
[11]; [19]
  Serum 12-HEPE level vs vehicle: not significantly changed
  Serum 12-HETE level vs vehicle: significantly reduced
  Serum 13-HODE level vs vehicle: significantly reduced
  Serum 14-HDHA level vs vehicle: significantly reduced
  Serum 17-HDHA level vs vehicle: significantly reduced
[11]; [20]
  12-HEPE (Fig 2B): 14.181 and 5.614 and 0.079 and 3.392 and 10.786
  12-HETE (Fig 2B): 1108.62 and 574.602 and 13.903 and 321.764 and 853.064
  13(S)-HODE (Fig 2B): 213.641 and 75.17 and 53.113 and 81.494 and 90.355
  14-HDHA (Fig 2B): 76.057 and 30.285 and 4.719 and 24.172 and 46.818
  15-HETE (Fig 2B): 21.905 and 9.387 and 6.557 and 15.336 and 15.324
  17-HDHA (Fig 2B): 7.358 and 2.244 and 2.092 and 3.507 and 3.423
